# Experimental data taken from US6638726B1, “Screening methods for compounds useful in the treatment of polycystic kidney disease” (Mount Sinai School of Medicine of New York University, priority 2000, dated 2003).
# Tested on: ADPKD cells
# Test: modified Boyden chamber motility assay
# Assay type: cell-based, human
# Conditions: cells treated for 2 days with 10 mM LiCl, migration through 8 μM pores, 1%-5% FBS gradient, fluorescent microplate quantification, compared with NHCT and NHTAL controls
# Protocol: To assay for cell motility a number of different assays may be used, including but not limited to, standard migratory assays on slides or using modified Boyden chambers. Such assay systems are described in further detail in a working example of the present specification (See, Example 7).
# Using a modified Boyden chamber motility assay human renal epithelial cells and ADPKD cells were plated (5000 cells/membrane) in the upper chamber and allowed to migrate through 8 μM pores for 0-15 hours in response to a 1%-5% FBS gradient. All primary and differentiated conditionally immortalized cell types migrate in a a time-dependent fashion but more normal adult collecting tubule (NHCT) and thick ascending limb (NHTAL) cells appeared in the lower chamber than ADPKD epithelia, 975±10 (NHCT), 1060±(NHTAL) versus 426±20 (ADPKD). The effect of lithium on renal epithelial cell motility was assessed. Calcein-AM (Goldberg, A. Fluorescent Blocking Membrane Enhances Analyses of Cell-Based Assay. Becton Dickinson Techniques Bulletin #429) labeled cells were treated for 2 days±10 mM LICL and then plated onto membranes as described above.
compound,measurement,setting,value
"[Cl-].[Li+] [LiCl, lithium chloride]",motility of ADPKD cells,,significantly increased the motility of ADPKD cells
same,motility of ADPKD cells,listed as Lithium,increases the motility of ADPKD cells to the level observed for NHCT (CT) cells
same,motility of ADPKD cells,listed as lithium,decreased epithelial cell motility can be reversed
same,motility of ADPKD cells,listed as lithium chloride,increase the motility of ADPKD cells to almost normal levels
